{
  "source": "paper PMC7217877",
  "about": "“N-AS-triggered SPMs are direct regulators of microglia in a model of Alzheimer’s disease” (Nature Communications, 2020)",
  "key": {"APP/PS1 mice [1]": {"test_system": "APP/PS1 mice", "assay": "Iba1+ microglia and GFAP+ astrocyte quantification in cortex (Fig 6h,i)", "assay_type": "in vivo, mouse", "method": "(§1) Thioflavin S (Sigma-Aldrich) staining was carried out according to previously described procedures. We used 6E10 (mouse, 1:100, Signet, SIG39300), anti-20G10 (mouse, 1:1000, provided by D. R. Howlett, GlaxoSmithKline, Harlow, Essex, UK) for Aβ42, anti-G30 (rabbit, 1:1000, provided by D. R. Howlett) for Aβ40, SMA (mouse, 1:400, Sigma-Aldrich, A2547), AT8 (mouse, 1:500, Thermo Fisher Scientific, MN1020), Caspase-3 (mouse, 1:200, Novus Biologicals, NB100-56708), ac-S565 (rabbit, 1:100), COX2 (mouse, 1:250, Thermo Fisher Scientific, 35-8200), Iba1 (rabbit, 1:500, Wako, 019-19941 and goat, Abcam, ab5076), NeuN (mouse, 1:500, Millipore, MAB177), GFAP (rabbit, 1:500, Dako, N1506 and chicken, 1:500, Abcam, ab4674), and Lamp1 (mouse, 1:200, Abcam, ab24170). The sections were analyzed with a laser-scanning confocal microscope (FV3000; Olympus) or with a BX51 microscope (Olympus). MetaMorph software (Molecular Devices) was used to quantification. Three-dimensional reconstruction of microglia was recorded and analyzed using IMARIS software (Bitplane)[11]. For the analysis of age-dependent microglial COX2^+ CX3CR1^+ cells in WT and APP/PS1 mice, COX2 (rabbit, 1:100, Abcam, ab15191) and CX3CR1 (mouse, 1:100, BioLegend, 149008) antibody were used and the images were acquired on Alexa 488 and APC Channel with performed using Operetta CLS and Analysis Software 4.5 (Perkin-Elmer).\nTransgenic mouse lines over-expressing the hAPP695swe (APP) and presenilin-1M146V (PS1) mutations were originated from GlaxoSmithKline (Harlow, UK)[32] and maintained as described previously. We purchased 5×FAD mice from Jackson Labs (Stock number. 34840-JAX). Because APP/PS1 and 5xFAD mice show sex differences in disease progression, we used only male mice. To examine possible therapeutic effect of N-AS and aspirin in APP/PS1 mice, the N-AS (30 mg kg^−1, Sigma-Aldrich, 01912) was injected daily s.c. for 8 weeks to 7-months-old APP/PS1 mice until the age of 9 months, and aspirin (2 mg kg^−1, Sigma-Aldrich, A5376)[33] was administrated orally to 7-months-old APP/PS1 mice for 8 weeks. […]"}, "APP/PS1 mice [2]": {"test_system": "APP/PS1 mice", "assay": "tau hyperphosphorylation (AT8) quantification (Fig 6g)", "assay_type": "in vivo, mouse", "method": "as §1, with “(Perkin-Elmer). […]” for “(Perkin-Elmer).”"}, "5×FAD mice": {"test_system": "5×FAD mice", "assay": "Iba1+ microglia and GFAP+ astrocyte quantification (Supplementary Fig 8d,e)", "assay_type": "in vivo, mouse", "method": "as §1, with “(Perkin-Elmer). […]” for “(Perkin-Elmer).”"}, "microglia": {"test_system": "microglia", "assay": "sphingosine level in primary cells (UPLC)", "assay_type": "cell-based, C57BL/6 mice", "conditions": "Ab 10mM, replicates", "method": "To confirm the generation and roles of N-AS in neurons, cells from E18 C57BL/6 mice were prepared as previously described. Cortices were dissected and then dissociated followed by incubation in papain (Worthington) at 37 °C for 15 min. Neurons were plated on poly-L-lysine-coated coverslips with neuronal culture medium, serum-free Neurobasal medium (Gibco) containing 2% B27 supplements (Gibco), 1 mM Glutamax supplement (Gibco), and 100 U ml^−1 streptomycin/ 100 U ml^−1 penicillin (Gibco) at 37 °C in a humidified atmosphere of 5% CO2. Aβ 1–42 (10 μM, 24 h, Invitrogen, 03112) was exposed to neurons and the cells were analyzed for the generation and roles of N-AS. Primary astrocyte cultures were prepared from C57BL/6 mice as described previously. […] The human microglia treated with Aβ 1–42 and/or zileuton was incubated with N-AS (2.5 μM, 2 h, Sigma-Aldrich, 01912), and were analyzed for the generation and roles of N-AS.\nTo quantify the sphingosine levels, the dried lipid extract was resuspended in 0.2% Igepal CA-630. […] The fluorescent sphingosine was monitored using a model 474 scanning fluorescence detector (Waters). Quantification of the sphingosine was calculated from sphingosine calibration curves using the Waters Millennium software."}, "[3]": {"conditions": "APP/PS1 + N-AS, individual animals"}},
  "note": "Several values for one entry are separate records, joined by “and”; a condition that tells them apart may be missing. Equal values may be shown once.",
  "data": [
    {"compound": "CCCCCCCCCCCCC/C=C/[C@@H](O)[C@H](CO)NC(C)=O", "note": "[N-AS, N-((2S,3R,E)-1,3-Dihydroxyoctadec-4-en-2-yl)acetamide]", "values": [
      {"measurement": "GFAP+ astrocyte quantification (Figure 6i)", "setting": "APP/PS1 mice [1]; [3]", "value": "2.9 and 1.684 and 2.972 and 1.386 and 1.661 and 0.8495 and 1.293 and 1.379"},
      {"measurement": "Iba1+ microglia quantification (Figure 6h)", "setting": "APP/PS1 mice [1]; [3]", "value": "0.2355 and 0.191 and 0.3245 and 0.8739 and 0.8648 and 0.875 and 0.5574 and 0.579 and 0.4301"},
      {"measurement": "inflammatory response (Iba1+ microglia, GFAP+ astrocyte)", "setting": "APP/PS1 mice [1]; N-AS vs vehicle APP/PS1", "value": "improved"},
      {"measurement": "tau hyperphosphorylation (AT8) quantification (Figure 6g)", "setting": "APP/PS1 mice [2]; [3]", "value": "0.1647 and 0.1634 and 0.2394 and 0.275 and 0.2281 and 0.1841"},
      {"measurement": "tau hyperphosphorylation", "setting": "APP/PS1 mice [2]; APP/PS1 treated with N-AS", "value": "reduced"},
      {"measurement": "GFAP+ astrocyte", "setting": "5×FAD mice; 5xFAD+N-AS, sFig 8e (sheet untitled)", "value": "1.617 and 1.112 and 1.516 and 1.497 and 1.364 and 1.314"},
      {"measurement": "neuroinflammation", "setting": "5×FAD mice; 5×FAD, N-AS 30 mg kg^-1 daily s.c. 4 weeks", "value": "similarly improved AD pathology of 5×FAD mice"}
    ]},
    {"compound": "Ab: Aβ 1–42 (Invitrogen, 03112) used to induce an AD environment in cells", "values": [
      {"measurement": "sphingosine (Fig 3f)", "setting": "microglia", "value": "0.15 and 0.136 and 0.128 and 0.16 and 0.14 and 0.144"}
    ]}
  ]
}
